Laboratory results published in patent US20230027295A1, “FXIA INHIBITORS AND PREPARATION METHOD THEREFOR AND PHARMACEUTICAL USE THEREOF” (Shenzhen Salubris Pharmaceuticals Co., Ltd., priority 2019, published 2023).

Columns and labels:
Rat pharmacokinetics = format: in vivo, SD rats; set-up: AUC: concentration or dose not given beside the values; details: for AUC / Cmax / Tmax / clearance / half-life / Vd: male, SD, plasma; for Vd: read-out: Vss
Excerpt: Example 53: Investigation of the Pharmacokinetic Characteristics of the Compounds of the Present Invention
SD rats: male, 180-250 g, purchased from Guangdong Medical Laboratory Animal Center. Cynomolgus monkey: male, 4-6 kg, purchased from Guangzhou Chunsheng Biological Research Institute Co., Ltd. Beagle dog: male, 8-12 kg, developed in Kanglong Chemical (Ningbo) New Drug Technology Co., Ltd.
Reagents: DMSO (dimethyl sulfoxide), PEG-400 (polyethylene glycol 400), normal brine, heparin, acetonitrile, formic acid, and propranolol (internal standard) are commercially available.
Instrumentation: Thermo Fisher Scientific LC-MS (U300 UPLC, TSQ […] ULTRA triple quadrupole mass spectrometer).
The compound was weighed and dissolved in DMSO-PEG-400-physiological brine (5:60:35, v/v/v) system. After the rats/monkeys were administered intravenously or by gavage, 200 μL of venous blood was collected at 5 min (not collected when administered by gavage), 15 min, 30 min, 1 h, 2 h, 4 h, 6 h, 8 h, and 24 h in heparinized EP tubes, centrifuged at 12000 rpm for 2 min, and the plasma was frozen at −80° C. for testing. A certain amount of the test substance was precisely weighed and dissolved in DMSO to 1 mg/mL, which was used as a stock solution. An appropriate amount of compound stock solution was accurately pipetted and diluted with acetonitrile to prepare a standard series of solutions. 20 μL of each of the above standard series solutions were accurately pipetted, added with 180 μL of blank plasma, vortexed and mixed to prepare plasma samples equivalent to plasma concentrations of 1, 3, 10, 30, 100, 300, 1000, 3000 and 5000 ng/mL. Two-sample analysis was performed for each concentration to establish a standard curve. 20 μL of plasma was taken out, added with 200 μL of internal standard propranolol (5 ng/mL) in acetonitrile, vortexed and mixed. It was centrifuged at 4000 rpm for 5 min, and the supernatant was collected for LC-MS analysis. LC-MS detection conditions were as follows:
Chromatographic column: Thermo Scientific […] GOLD C-18 UPLC column, 100*2.1 mm, 1.9 μm.
Mobile phase: water (0.1% formic acid)-acetonitrile for gradient elution according to the table below.
After blood drug concentrations being detected by LC-MS, WinNonlin 6.1 software was used to calculate pharmacokinetic parameters by non-compartmental model method.

human plasma = assay: Anticoagulant effect on human plasma in vitro (APTT determination); format: biochemical; details: for aPTT EC1.5×: concentration giving APTT of 1.5× blank control; for aPTT EC2×: concentration giving APTT of 2× blank control
Method: Example 51: Determination of the Anticoagulant Effect of the Compounds of the Present Invention on Human Plasma In Vitro
Plasma: Human blood was collected in a vacuum blood collection tube containing 3.2% sodium citrate (volume ratio 1:9), centrifuged at 3000 rpm for 10 min at room temperature, and the plasma was collected, divided into EP tubes, and stored at −80° C.
Reagents: APTT assay kit (Activated partial thromboplastin time assay kit, mindray), calcium chloride solution.
Instrument: coagulation meter (mindray, C2000-A)
The frozen human plasma in aliquots was thawed at room temperature and mixed well. 10 mM test compound dissolved in 100% DMSO was diluted with 100% DMSO to 1500, 750, 375, 187.5, 93.75, 46.88, 23.44, 11.72 μM. 98 μL of human plasma was added to a 1.5 mL EP tube, then 2 μL of compounds of different concentrations were added, and 2 μL of 100% DMSO was added for the blank group. They were incubated under a water bath at 37° C. for 10 min, and the samples were placed in the corresponding position of the coagulation analyzer to conduct APTT determination of the compounds.
Curve fitting was performed with GraphPad Prism software, and EC1.5× and EC2× values were calculated respectively, i.e., the concentrations of the compounds corresponding to the APTT of 1.5× and 2× blank control group.

Human Factor XIa = Human Factor XIa (Homo sapiens, UniProt P03951); assay: Inhibition of human coagulation factor XIa by absorptiometry (substrate S-2366); format: biochemical; details: 37° C., 20 min incubation, absorbance 405 nm; read-out: hFXIa IC50
Sequence of Human Factor XIa (P03951 388-625 limits assumed): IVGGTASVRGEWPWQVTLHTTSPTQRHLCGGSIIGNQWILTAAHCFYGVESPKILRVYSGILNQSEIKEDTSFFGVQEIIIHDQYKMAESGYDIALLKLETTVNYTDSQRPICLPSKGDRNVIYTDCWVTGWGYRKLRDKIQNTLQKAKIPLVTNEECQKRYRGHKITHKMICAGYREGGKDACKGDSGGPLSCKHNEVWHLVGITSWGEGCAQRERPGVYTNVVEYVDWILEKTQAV
Sequence of Human Factor XIa (P03951 19-387 partner limits assumed): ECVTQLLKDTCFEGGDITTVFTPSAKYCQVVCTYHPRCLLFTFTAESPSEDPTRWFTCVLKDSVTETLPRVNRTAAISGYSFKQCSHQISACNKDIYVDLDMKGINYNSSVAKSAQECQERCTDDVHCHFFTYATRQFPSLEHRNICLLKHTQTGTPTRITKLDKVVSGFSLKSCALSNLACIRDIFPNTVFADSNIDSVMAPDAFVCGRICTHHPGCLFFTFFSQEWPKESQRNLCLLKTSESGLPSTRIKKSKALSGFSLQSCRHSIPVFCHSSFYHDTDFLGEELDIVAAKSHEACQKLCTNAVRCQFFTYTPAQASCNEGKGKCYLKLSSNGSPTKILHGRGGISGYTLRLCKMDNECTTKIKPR
Method: Example 50: Detection of the Biological Activity of the Compounds of the Present Invention on the Inhibition of Human Coagulation Factor XIa by Absorptiometry
Buffer: 145 mM NaCl, 5 mM KCl, 1 mg/mL PEG 8000, 30 mM HEPES, pH 7.4
10 mM test compound dissolved in 100% DMSO was diluted with 100% DMSO to […]; 98 μL of FXIa enzyme solution (77.7 ng/mL) was added to each well of a 96-well plate, and 98 μL of buffer was added to the blank wells. 2 μL of compounds of different concentrations were added, and the blank and control wells were added with DMSO instead. They were mixed with a shaker, and incubated at 37° C. for 20 minutes.
Finally, 100 μL of 800 μM substrate was added to each well, and its absorbance was measured at 405 nm.

| Structure (SMILES) | aPTT EC1.5× (human plasma) | aPTT EC2× (human plasma) | IC50 (Human Factor XIa) | also measured |
| --- | --- | --- | --- | --- |
| O=C(O)c1ccc(NC(=O)[C@H](Cc2ccccc2)n2cnc(-c3cc(Cl)ccc3-n3cc(Cl)nn3)cc2=O)cc1 [Compound A, (S)-4-(2-(4-(5-chloro-2-(4-chloro-1H-1,2,3-triazol-1-yl)phenyl)-6-oxopyrimidin-1(6H)-yl)-3-phenylpropanamido)benzoic acid, reference compound] | – | – | – | F (Rat pharmacokinetics; ig): 8.2%; AUC (Rat pharmacokinetics; iv): 1410 ng·h/mL; Cmax (Rat pharmacokinetics; iv): 4600 ng/mL; Tmax (Rat pharmacokinetics; iv): 4.98 min; clearance (Rat pharmacokinetics; iv): 11.9 mL/min/kg; half-life (Rat pharmacokinetics; iv): 35.3 min; Vd (Rat pharmacokinetics; iv): 0.124 L/kg; AUC (Rat pharmacokinetics; po, ig): 576 ng·h/mL; Cmax (Rat pharmacokinetics; po, ig): 180 ng/mL; Tmax (Rat pharmacokinetics; po, ig): 30 min; half-life (Rat pharmacokinetics; po, ig): 75.6 min |
| CC(=O)c1ccc(Cl)cc1-c1cnn([C@@H](Cc2ccccc2)C(=O)Nc2ccc(C(=O)O)cc2)c(=O)c1 [Example 1, (S)-4-(2-(4-(2-acetyl-5-chlorophenyl)-6-oxopyridazin-1(6H)-yl)-3-phenylpropanamido)benzoic acid] | 9.31 µM | >30 µM | – | – |
| COc1nn(C(Cc2ccc(F)cc2)C(=O)Nc2ccc(C(=O)O)cc2)c(=O)cc1-c1cc(Cl)ccc1C(C)=O (stereo not shown) [Example 2] | 3.455 µM | >15 µM | 45.6 nM | – |
| COc1nn(C(Cc2ccc(Br)cc2)C(=O)Nc2ccc(C(=O)O)cc2)c(=O)cc1-c1cc(Cl)ccc1C(C)=O (stereo not shown) [Example 3, 4-(2-(4-(2-acetyl-5-chlorophenyl)-3-methoxy-6-oxopyridazin-1(6H)-yl)-3-(4-bromophenyl)propanamido)benzoic acid] | – | – | 51.2 nM | – |
| COc1nn(C(Cc2ccc(N3CCN(C(C)C)CC3=O)cc2)C(=O)Nc2ccc(C(=O)O)cc2)c(=O)cc1-c1cc(Cl)ccc1C(C)=O (stereo not shown) [Example 4, 4-(2-(4-(2-acetyl-5-chlorophenyl)-3-methoxy-6-oxopyridazin-1(6H)-yl)-3-(4-(4-isopropyl-2-oxopiperazin-1-yl)phenyl)propanamido)benzoic acid] | 2.171 µM | 11.938 µM | 32.6 nM | – |
| CCOCC1CCN(c2ccc(CC(C(=O)Nc3ccc(C(=O)O)cc3)n3nc(OC)c(-c4cc(Cl)ccc4C(C)=O)cc3=O)cc2)C(=O)C1 (stereo not shown) [Example 5] | 1.18 µM | 4.414 µM | 8.89 nM | – |
| CC(=O)c1ccc(Cl)cc1-c1cc(=O)n([C@@H](Cc2ccccc2)C(=O)Nc2ccc(C(=O)O)cc2)nc1OCCO [Example 6, (S)-4-(2-(4-(2-acetyl-5-chlorophenyl)-3-(2-hydroxyethoxy)-6-oxopyridazine-1(6H)-yl)-3-phenylpropanamido)benzoic acid] | 0.771 µM | 2.892 µM | – | F (Rat pharmacokinetics; ig): 1.7%; AUC (Rat pharmacokinetics; iv): 604 ng·h/mL; Cmax (Rat pharmacokinetics; iv): 1370 ng/mL; Tmax (Rat pharmacokinetics; iv): 4.98 min; clearance (Rat pharmacokinetics; iv): 27.6 mL/min/kg; half-life (Rat pharmacokinetics; iv): 9.72 min; Vd (Rat pharmacokinetics; iv): 0.432 L/kg; Cmax (Rat pharmacokinetics; po, ig): 30.5 ng/mL; Tmax (Rat pharmacokinetics; po, ig): 60 min |
| COc1nn(C(Cc2ccc(C)cc2)C(=O)Nc2ccc(C(=O)O)cc2)c(=O)cc1-c1cc(Cl)ccc1C(C)=O (stereo not shown) [Example 7, 4-(2-(4-(2-acetyl-5-chlorophenyl)-3-methoxy-6-oxopyridazine-1(6H)-yl)-3-(p-tolyl)propanamido)benzoic acid] | 2.073 µM | 12.58 µM | 24.2 nM | – |
| COc1nn(C(Cc2cccc(C)c2)C(=O)Nc2ccc(C(=O)O)cc2)c(=O)cc1-c1cc(Cl)ccc1C(C)=O (stereo not shown) [Example 8, 4 (2-(4-(2-acetyl-5-chlorophenyl)-3-methoxy-6-oxopyridazine-1(6H)-yl)-3-(m-tolyl)propanamido)benzoic acid] | 2.67 µM | >15 µM | 30.3 nM | – |
| COc1nn([C@@H](Cc2ccccc2)C(=O)Nc2ccc(C(=O)O)c(F)c2)c(=O)cc1-c1cc(Cl)ccc1C(C)=O [Example 14, (S)-4-(2-(4-(2-acetyl-5-chlorophenyl)-3-methoxy-6-oxopyridazin-1(6H)-yl)-3-phenylpropanamido)-2-fluorobenzoic acid] | – | – | 59.3 nM | – |
| CC(=O)c1ccc(Cl)cc1-c1cc(=O)n([C@@H](Cc2ccccc2)C(=O)Nc2ccc(C(=O)O)cc2)nc1OCC1CC1 [Example 20, (S)-4-(2-(4-(2-acetyl-5-chlorophenyl)-3-(cyclopropylmethoxy)-6-oxopyridazin-1(6H)-yl)-3-phenylpropanamido)benzoic acid] | 2.418 µM | 28.32 µM | 20.6 nM | – |
| CC(=O)c1ccc(Cl)cc1-c1cc(=O)n([C@@H](Cc2ccccc2)C(=O)Nc2ccc(C(=O)O)cc2)nc1OC(C)C [Example 22, (S)-4-(2-(4-(2-acetyl-5-chlorophenyl)-3-isopropoxy-6-oxopyridazin-1(6H)-yl)-3-phenylpropanamido)benzoic acid] | 1.346 µM | 9.382 µM | 16.2 nM | – |
| CC(=O)c1ccc(Cl)cc1-c1cc(=O)n([C@@H](Cc2ccccc2)C(=O)Nc2ccc(C(=O)O)cc2)nc1OCC(F)(F)F [Example 23, (S)-4-(2-(4-(2-acetyl-5-chlorophenyl)-6-oxo-3-(2,2,2-trifluoroethoxy)pyridazine-1(6H)-yl)-3-phenylpropanamido)benzoic acid] | 4.236 µM | >15 µM | 22.5 nM | – |
| COc1nn([C@@H](Cc2ccccc2)C(=O)Nc2ccc(C(=O)O)c(Cl)c2)c(=O)cc1-c1cc(Cl)ccc1C(C)=O [Example 27, (S)-4-(2-(4-(2-acetyl-5-chlorophenyl)-3-methoxy-6-oxopyridazin-1(6H)-yl)-3-phenylpropanamido)-2-chlorobenzoic acid] | – | – | 79.5 nM | – |
| COc1cc(NC(=O)[C@H](Cc2ccccc2)n2nc(OC)c(-c3cc(Cl)ccc3C(C)=O)cc2=O)ccc1C(=O)O [Example 28, (S)-4-(2-(4-(2-acetyl-5-chlorophenyl)-3-methoxy-6-oxopyridazin-1(6H)-yl)-3-phenylpropan amido)-2-methoxybenzoic acid] | – | – | 218 nM | – |
| COc1nn([C@@H](Cc2ccccc2)C(=O)Nc2ccc(C(=O)O)c(O)c2)c(=O)cc1-c1cc(Cl)ccc1C(C)=O [Example 29, (S)-4-(2-(4-(2-acetyl-5-chlorophenyl)-3-methoxy-6-oxopyridazin-1(6H)-yl)-3-phenylpropan amido)-2-hydroxybenzoic acid] | – | – | 63.8 nM | – |
| CC(=O)c1ccc(Cl)cc1-c1cc(=O)n([C@@H](Cc2ccccc2)C(=O)Nc2ccc(C(=O)O)cc2)nc1O [Example 34, (S)-4-(2-(4-(2-acetyl-5-chlorophenyl)-3-hydroxy-6-oxopyridazin-1(6H)-yl)-3-phenylpropanamido)benzoic acid] | – | – | 140 nM | – |
| O=C(O)c1ccc(NC(=O)[C@H](Cc2ccccc2)n2ncc(-c3c(F)ccc(Cl)c3F)cc2=O)cc1 [Example 42, (S)-4-(2-(4-(3-chloro-2,6-difluorophenyl)-6-oxopyridazin-1(6H)-yl)-3-phenylpropanamido)benzoic acid] | – | – | 1400 nM | – |
